Columns and labels:
Oryctolagus cuniculus [1] = assay: Anti-ischemic activity in anesthetized New Zealand rabbit heart assessed as reduction in ischemia-induced ST segment elevation by measuring MAPD90_ATX levels at 1 uM plasma concentration at 0.1 to 0.4 mg/kg, iv bolus dose dosed 30 mins before ischemia followed by reperfusion; assay type: functional
Oryctolagus cuniculus [2] = assay: Anti-ischemic activity in anesthetized New Zealand rabbit heart assessed as reduction in ischemia-induced ST segment elevation at 0.1 to 0.4 mg/kg, iv bolus dose dosed 30 mins before ischemia followed by reperfusion; assay type: functional, organism-based
Oryctolagus cuniculus [3] = assay: Effect on blood pressure in anesthetized New Zealand rabbit ischemia-induced ST segment elevation model at 0.1 to 0.4 mg/kg, iv bolus dose dosed 30 mins before ischemia followed by reperfusion; assay type: ADME, organism-based; details: in vivo, 0.5 h
Oryctolagus cuniculus [4] = assay: Effect on heart rate in anesthetized New Zealand rabbit ischemia-induced ST segment elevation model at 0.1 to 0.4 mg/kg, iv bolus dose dosed 30 mins before ischemia followed by reperfusion; assay type: ADME, organism-based; details: in vivo, 0.5 h
Oryctolagus cuniculus [5] = assay: Effect on ECG intervals in anesthetized New Zealand rabbit ischemia-induced ST segment elevation model at 0.1 to 0.4 mg/kg, iv bolus dose dosed 30 mins before ischemia followed by reperfusion; assay type: ADME, organism-based; details: in vivo, 0.5 h
Oryctolagus cuniculus [6] = assay: Anti-ischemic activity in anesthetized New Zealand rabbit heart assessed as reduction in ischemia-induced myocardial electrical dysfunction at 0.1 to 0.4 mg/kg, iv bolus dose dosed 30 mins before ischemia followed by reperfusion; assay type: functional, organism-based
[7] = molecular target: Sodium channel protein type 5 subunit alpha (Homo sapiens, UniProt Q14524); assay: Inhibition of human NaV1.5 expressed in HEK293 cells assessed as blocking of tefluthrin-induced late sodium currents at 1 uM using -20 mV voltage steps at holding potential of -120 mV by whole cell patch clamp Qpatch method; assay type: cell-based
[8] = molecular target: NaV1.5 (peak sodium current) (Homo sapiens, UniProt Q14524); assay: Inhibition of human NaV1.5 expressed in HEK293 cells assessed as use dependent blocking of cell membrane depolarization-induced peak sodium currents at 1 uM at 0 mV and 3 Hz stimulation at holding potential of -100 mV by whole cell patch clamp Qpatch method; assay type: cell-based; details: HEK293 cells that express human NaV1.5
NaV1.5 (peak sodium current), sequence (Q14524 whole entry): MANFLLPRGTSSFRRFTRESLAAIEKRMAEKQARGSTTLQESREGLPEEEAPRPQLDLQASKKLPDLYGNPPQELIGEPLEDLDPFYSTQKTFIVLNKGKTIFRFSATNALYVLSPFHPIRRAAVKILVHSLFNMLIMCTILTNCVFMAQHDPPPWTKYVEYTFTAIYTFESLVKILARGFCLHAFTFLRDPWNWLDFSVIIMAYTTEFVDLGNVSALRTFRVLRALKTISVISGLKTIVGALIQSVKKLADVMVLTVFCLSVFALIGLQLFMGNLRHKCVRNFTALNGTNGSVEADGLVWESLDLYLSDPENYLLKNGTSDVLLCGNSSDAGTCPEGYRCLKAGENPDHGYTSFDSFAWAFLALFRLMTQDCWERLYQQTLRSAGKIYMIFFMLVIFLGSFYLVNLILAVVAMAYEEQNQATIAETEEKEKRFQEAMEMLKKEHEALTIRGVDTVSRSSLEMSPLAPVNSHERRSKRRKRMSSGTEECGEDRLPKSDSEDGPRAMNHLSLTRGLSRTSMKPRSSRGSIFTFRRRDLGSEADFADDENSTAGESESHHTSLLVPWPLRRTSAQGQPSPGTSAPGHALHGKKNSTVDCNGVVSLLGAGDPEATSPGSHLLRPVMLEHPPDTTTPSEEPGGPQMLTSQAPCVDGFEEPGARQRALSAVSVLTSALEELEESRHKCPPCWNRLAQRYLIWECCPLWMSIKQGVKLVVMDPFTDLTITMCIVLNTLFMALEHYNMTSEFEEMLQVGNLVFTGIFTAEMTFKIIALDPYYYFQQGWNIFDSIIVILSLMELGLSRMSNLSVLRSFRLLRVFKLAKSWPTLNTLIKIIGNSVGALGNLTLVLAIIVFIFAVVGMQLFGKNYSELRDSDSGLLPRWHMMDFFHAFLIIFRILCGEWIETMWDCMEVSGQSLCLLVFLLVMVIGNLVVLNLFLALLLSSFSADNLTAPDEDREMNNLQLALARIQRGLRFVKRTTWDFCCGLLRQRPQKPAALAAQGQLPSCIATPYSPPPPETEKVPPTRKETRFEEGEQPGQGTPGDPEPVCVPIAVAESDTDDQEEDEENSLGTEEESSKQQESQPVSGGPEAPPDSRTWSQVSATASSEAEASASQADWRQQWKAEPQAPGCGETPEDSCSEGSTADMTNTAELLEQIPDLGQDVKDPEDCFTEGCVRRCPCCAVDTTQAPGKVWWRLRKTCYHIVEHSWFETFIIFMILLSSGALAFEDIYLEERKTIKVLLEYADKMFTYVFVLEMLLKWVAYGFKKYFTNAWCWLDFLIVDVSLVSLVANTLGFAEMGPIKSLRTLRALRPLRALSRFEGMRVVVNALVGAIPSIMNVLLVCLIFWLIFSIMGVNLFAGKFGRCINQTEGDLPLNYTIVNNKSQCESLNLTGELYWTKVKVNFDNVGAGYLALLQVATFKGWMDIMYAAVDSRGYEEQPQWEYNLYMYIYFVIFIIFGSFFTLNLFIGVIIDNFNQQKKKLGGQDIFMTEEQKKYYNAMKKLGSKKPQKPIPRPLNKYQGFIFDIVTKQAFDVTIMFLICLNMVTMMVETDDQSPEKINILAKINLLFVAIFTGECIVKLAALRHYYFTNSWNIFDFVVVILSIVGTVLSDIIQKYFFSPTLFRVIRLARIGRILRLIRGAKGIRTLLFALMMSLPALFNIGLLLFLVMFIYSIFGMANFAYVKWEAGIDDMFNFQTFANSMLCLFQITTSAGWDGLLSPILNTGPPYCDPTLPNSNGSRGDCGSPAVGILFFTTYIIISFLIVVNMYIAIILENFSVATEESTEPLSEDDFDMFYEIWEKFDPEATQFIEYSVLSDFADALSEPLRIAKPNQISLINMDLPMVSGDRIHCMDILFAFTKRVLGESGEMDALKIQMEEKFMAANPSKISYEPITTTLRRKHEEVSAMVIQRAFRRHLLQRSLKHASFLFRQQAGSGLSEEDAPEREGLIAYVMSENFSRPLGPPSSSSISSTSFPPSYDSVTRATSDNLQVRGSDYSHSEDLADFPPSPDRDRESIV

Sodium channel protein type 5 subunit alpha, sequence (Q14524 whole entry): as above

| SMILES | inhibition (INH) (Oryctolagus cuniculus [1]) | further results |
| --- | --- | --- |
| Cc1ccnc(CN2CCOc3cnc(-c4ccc(OC(F)(F)F)cc4)cc3C2=O)n1 | -34% |  |
| CC(C)(C)c1ccc(-c2ccc3c(c2)C(=O)N(Cc2ncccn2)CCO3)cc1 | -50% |  |
| O=C1c2cc(-c3ccc(OC(F)(F)F)cc3)ccc2OCCN1Cc1ncccn1 [ELECLAZINE] | -56% | inhibition (Oryctolagus cuniculus [2]): Dose-dependent effect; Activity (Oryctolagus cuniculus [3]): Non-Toxic; Activity (Oryctolagus cuniculus [4]): Non-Toxic; Activity (Oryctolagus cuniculus [5]): Non-Toxic; inhibition (Oryctolagus cuniculus [6]): Dose-dependent effect |
| O=C1c2cc(-c3ccc(OC(F)(F)F)cc3)ccc2OCCN1Cn1cc(Cl)cn1 | -23% |  |
| O=C1c2cc(-c3ccc(OC(F)(F)F)cc3)ccc2OCCN1Cc1ccc2ccccc2n1 | -10% |  |
| O=C1c2cc(-c3ccc(C(F)(F)F)cc3)ccc2OCCN1Cc1ncccn1 | -62% | inhibition (Oryctolagus cuniculus [2]): Dose-dependent effect; Activity (Oryctolagus cuniculus [3]): Non-Toxic; Activity (Oryctolagus cuniculus [4]): Non-Toxic; Activity (Oryctolagus cuniculus [5]): Non-Toxic; inhibition (Oryctolagus cuniculus [6]): Dose-dependent effect |
| O=C1c2cc(C#Cc3ccc(OC(F)(F)F)cc3)ccc2OCCN1Cc1ncccn1 | -25% |  |
| COc1cc(OC)nc(CN2CCOc3ccc(-c4ccc(OC(F)(F)F)cc4)cc3C2=O)n1 | -27% |  |
| O=C1c2cc(C#Cc3ccc(C(F)(F)F)cc3)ccc2OCCN1Cc1ncccn1 | -49% |  |
| O=C1c2cc(-c3ccc(C(F)(F)F)cc3)ccc2OCCN1Cc1cn2ccccc2n1 | -49% | inhibition at 1 µM [7]: 32 to 33% |
| O=C1c2cc(-c3ccc(C(F)(F)F)cc3F)ccc2OCCN1Cc1ncccn1 |  | inhibition at 1 µM [8]: 10 to 11% |
| O=C(c1ncccn1)N1CCOc2ccc(-c3ccc(OC(F)(F)F)cc3)cc2C1 | -47% |  |
| O=C1c2cc(-c3ccc(Cl)cc3)ccc2OCCN1Cc1ncccn1 | -69% |  |
